Assay results published in patent publication US10906884B2, “Benzodiazepine derivatives as CCK2/gastrin receptor antagonists” (Trio Medicines Ltd, priority 2014, dated 2021).
Converted amounts (≈) assume the structure as drawn.

What was measured:
[1] = Aqueous solubility study in Britton-Robinson's buffer (HPLC-UV); format: physicochemical; settings: ambient temperature overnight; for solubility: thermodynamic from solid
Description: The test compound (2.5 mg of solid; n=1) was weighed in a clear glass vial and Britton-Robinson's buffer (0.5 mL) was added (pH 2.01, pH 3.06, pH 4.06, pH 5.08, pH 5.99, pH 6.98, and pH 8.16). The solution was agitated at ambient temperature overnight using a vial roller system, and then filtered (0.45 μm pore size; without pre-saturation). Two aliquots (50 μL) were sampled from the filtrate and diluted with one volume of 0.1 N hydrochloric acid and methanol (1:1 v/v) before analysis by HPLC-UV. A standard was prepared in DMSO at 10 mg/mL (n=1) which was then diluted 10-fold in 0.1 N hydrochloric acid and methanol (1:1 v/v) to give a 1 mg/mL solution. The concentration of test compound in the filtrate was quantified relative to the concentration standard.
Analysis was done using a gradient HPLC-UV system with a total cycle time of 6 min. The UV detection between 220 nm and 300 nm was done using a photodiode array detector.
The values given in the table above are for crystalline YF476 and (TR2-A) and amorphous (TR1).

[2] = Pharmacokinetics in healthy subjects, single oral dose, API in capsule; settings: human, in vivo; after single oral doses of (TR2-A); analyte TR2-A; read-out: AUC0-24 h of plasma concentrations of (TR2-A)
Description: In an initial study, healthy volunteers took a single oral dose of 100 mg (TR2) as an active pharmaceutical ingredient (API) in a capsule. Plasma concentrations were measured.
In further clinical studies, healthy volunteers (n=8) took single oral doses of 5, 15, 50 and 100 mg (TR2) as an active pharmaceutical ingredient (API) in a capsule. (Capsule formulation TR2 powder (API) in a hard gelatin capsule, no excipients, no processing). Plasma concentrations were measured.
Healthy volunteers (n=8) took single oral doses of 5, 15, 25 and 50 mg (TR2-A) as API in a capsule (TR2-A (crystalline) in hard gelatin capsule with no excipient, no processing of the API). Plasma concentrations of (TR2) and (TR2-A) were measured. The area under the curve of plasma concentrations of (TR2) after a single oral dose of 50 mg of (TR2-A) API (AUC0-24 h=212.5) was about the same as that observed for a similar formulation of a single oral dose of (TR2) 100 mg (AUC0-24 h=241.5).

[3] = pH 2.01, Britton-Robinson's buffer
[4] = pH 3.06, Britton-Robinson's buffer
[5] = pH 4.06, Britton-Robinson's buffer
[6] = pH 5.08, Britton-Robinson's buffer
[7] = pH 5.99, Britton-Robinson's buffer
[8] = pH 6.98, Britton-Robinson's buffer
[9] = pH 8.16, Britton-Robinson's buffer

SMILES | Aqueous solubility [1, 3] [µg/mL] | Aqueous solubility [1, 4] [µg/mL] | Aqueous solubility [1, 5] [µg/mL] | Aqueous solubility [1, 6] [µg/mL] | Aqueous solubility [1, 7] [µg/mL] | Aqueous solubility [1, 8] [µg/mL] | Aqueous solubility [1, 9] [µg/mL] | other results
CNc1cccc(NC(=O)N[C@@H]2N=C(c3ccccn3)c3ccccc3N(CC(=O)C(C)(C)COC(C)=O)C2=O)c1 [TR2-A amorphous] | 5000 | 683 | 282 | 128 | 53.4 | 43 | 40.2 | 
CNc1cccc(NC(=O)NC2N=C(c3ccccn3)c3ccccc3N(CC(=O)C(C)(C)CO)C2=O)c1 (racemic) [TR1, 1-[1-(4-Hydroxy-3,3-dimethyl-2-oxo-butyl)-2-oxo-5-pyridin-2-yl-2,3-dihydro-1H-1,4-benzodiazepin-3-yl]-3-(3-methylamino-phenyl)-urea] |  |  |  |  |  |  |  | solubility ([1]; aqueous buffer, pH 2.01, Britton-Robinson's buffer): 5000 µg/mL (≈ 9720 µM); solubility ([1]; aqueous buffer, pH 3.06, Britton-Robinson's buffer): 645 µg/mL (≈ 1250 µM); solubility ([1]; aqueous buffer, pH 4.06, Britton-Robinson's buffer): 58.2 µg/mL (≈ 113 µM); solubility ([1]; aqueous buffer, pH 5.08, Britton-Robinson's buffer): 9.8 µg/mL (≈ 19 µM); solubility ([1]; aqueous buffer, pH 5.99, Britton-Robinson's buffer): 11.6 µg/mL (≈ 22.5 µM); solubility ([1]; aqueous buffer, pH 6.98, Britton-Robinson's buffer): 5.84 µg/mL (≈ 11.3 µM); solubility ([1]; aqueous buffer, pH 8.16, Britton-Robinson's buffer): 7.81 µg/mL (≈ 15.2 µM)
CNc1cccc(NC(=O)N[C@@H]2N=C(c3ccccn3)c3ccccc3N(CC(=O)C(C)(C)COC(C)=O)C2=O)c1 [TR2-A, (R)-1-[1-(4-Acetoxy-3,3-dimethyl-2-oxo-butyl)-2-oxo-5-pyridin-2-yl-2,3-dihydro-1H-benzo[e][1,4]diazepin-3-yl]-3-(3-methylamino-phenyl)-urea] |  |  |  | 56 |  |  |  | solubility ([1]; pH 2.01, aqueous buffer, pH 2.01, Britton-Robinson's buffer): 4190 µg/mL (≈ 7530 µM); solubility ([1]; pH 3.06, aqueous buffer, pH 3.06, Britton-Robinson's buffer): 730 µg/mL (≈ 1310 µM); solubility ([1]; pH 4.06, aqueous buffer, pH 4.06, Britton-Robinson's buffer): 218 µg/mL (≈ 392 µM); solubility ([1]; pH 5.99, aqueous buffer, pH 5.99, Britton-Robinson's buffer): 47.2 µg/mL (≈ 84.8 µM); solubility ([1]; pH 6.98, aqueous buffer, pH 6.98, Britton-Robinson's buffer): 51 µg/mL (≈ 91.6 µM); solubility ([1]; pH 8.16, aqueous buffer, pH 8.16, Britton-Robinson's buffer): 45.4 µg/mL (≈ 81.6 µM); AUC(0-t) [2]: < 10 ng·h/mL
CNc1cccc(NC(=O)N[C@@H]2N=C(c3ccccn3)c3ccccc3N(CC(=O)C(C)(C)COC(C)=O)C2=O)c1 [TR2-A crystalline] | 4190 | 730 | 218 | 56 | 47.2 | 51 | 45.4 | 
